Our source for the IC50, Kp and AUC(0-inf) values is patent US12129258B2, “Diaryl macrocyclic compound and pharmaceutical composition, and use thereof” (PrimeGene (Beijing) Co., Ltd., priority 2018, dated 2024).

Where two headings read alike, the source gives them in different places.

Series [1] addresses TRKA (Homo sapiens (Human), UniProt P04629). Nature of the series: HTRF kinase activity assay, TRKA. Format: biochemical. As to conditions: 90 μM ATP. The method, then:
(§1) The IC50 values of the compounds were calculated using XLFIT5 (IDBS) software.
Background: Time-resolved FRET reads energy transfer from a long-lived donor to a nearby acceptor.

The target in series [2] is ALK-L1196M (Homo sapiens (Human), UniProt Q9UM73, L1196M). Nature of the series: HTRF kinase activity assay, ALK-L1196M. Type of series: biochemical. To be noted: 30 μM ATP. The method, then: as §1
Sequence of ALK-L1196M (Q9UM73 19-1620 L1196M): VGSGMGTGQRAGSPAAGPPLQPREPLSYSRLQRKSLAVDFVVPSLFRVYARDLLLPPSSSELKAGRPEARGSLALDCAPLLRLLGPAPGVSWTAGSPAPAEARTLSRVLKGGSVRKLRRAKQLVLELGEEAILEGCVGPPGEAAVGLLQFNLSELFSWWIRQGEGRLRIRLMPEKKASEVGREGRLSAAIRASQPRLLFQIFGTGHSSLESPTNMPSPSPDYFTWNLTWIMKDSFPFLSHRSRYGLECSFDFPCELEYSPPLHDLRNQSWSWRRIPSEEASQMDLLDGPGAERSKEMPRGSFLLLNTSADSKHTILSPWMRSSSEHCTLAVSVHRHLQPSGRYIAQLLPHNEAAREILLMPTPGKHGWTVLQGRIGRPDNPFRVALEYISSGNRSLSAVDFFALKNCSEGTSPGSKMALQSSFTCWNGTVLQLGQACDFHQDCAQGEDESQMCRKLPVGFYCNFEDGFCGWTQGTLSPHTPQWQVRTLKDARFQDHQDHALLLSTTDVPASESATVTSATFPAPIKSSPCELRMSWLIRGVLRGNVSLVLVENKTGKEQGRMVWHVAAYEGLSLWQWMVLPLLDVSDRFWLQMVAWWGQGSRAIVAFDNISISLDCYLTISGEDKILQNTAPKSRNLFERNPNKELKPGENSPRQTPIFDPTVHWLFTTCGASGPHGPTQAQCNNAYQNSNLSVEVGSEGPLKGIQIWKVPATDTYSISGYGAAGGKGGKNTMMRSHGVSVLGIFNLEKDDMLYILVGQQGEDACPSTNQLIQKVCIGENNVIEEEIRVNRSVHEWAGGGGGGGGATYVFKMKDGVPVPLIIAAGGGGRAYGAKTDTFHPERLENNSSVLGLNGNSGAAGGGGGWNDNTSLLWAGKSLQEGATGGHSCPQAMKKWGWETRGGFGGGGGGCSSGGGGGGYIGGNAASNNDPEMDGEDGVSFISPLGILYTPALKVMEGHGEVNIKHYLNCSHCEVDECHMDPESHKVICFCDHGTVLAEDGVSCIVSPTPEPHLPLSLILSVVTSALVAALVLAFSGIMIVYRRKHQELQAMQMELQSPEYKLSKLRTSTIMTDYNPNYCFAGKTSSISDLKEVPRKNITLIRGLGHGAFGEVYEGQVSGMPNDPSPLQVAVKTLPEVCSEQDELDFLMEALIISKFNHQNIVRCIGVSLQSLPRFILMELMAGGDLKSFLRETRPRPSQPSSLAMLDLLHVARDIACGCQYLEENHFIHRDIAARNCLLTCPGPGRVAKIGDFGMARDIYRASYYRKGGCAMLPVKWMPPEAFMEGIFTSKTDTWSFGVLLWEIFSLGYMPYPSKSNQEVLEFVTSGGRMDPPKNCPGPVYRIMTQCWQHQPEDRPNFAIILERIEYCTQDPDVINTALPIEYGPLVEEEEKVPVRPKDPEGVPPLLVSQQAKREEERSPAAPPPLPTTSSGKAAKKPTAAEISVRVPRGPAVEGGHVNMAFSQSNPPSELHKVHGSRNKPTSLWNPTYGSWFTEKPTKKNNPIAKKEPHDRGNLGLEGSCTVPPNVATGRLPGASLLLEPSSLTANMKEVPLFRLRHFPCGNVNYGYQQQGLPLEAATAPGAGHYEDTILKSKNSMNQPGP
Series [3] has as its target ROS1 (Homo sapiens (Human), UniProt P08922). Description: Mobility shift assay, ROS1 kinase. Format: biochemical. To be noted: ATP 26.7 μM. The text has this:
The operation is described as follows:
Conversion %_Sample: conversion rate of sample;

For series [4], the target named is ROS1-G2032R (Homo sapiens (Human), UniProt P08922, G2032R). Nature of the series: LanceUltra kinase activity assay, ROS1-G2032R. To be noted: 2.6 μM ATP. Format: biochemical. How it is done:
5 μl 40 mM EDTA was used to stop the reaction. Then 2 nM Europium-anti-phosphotyrosine (PT66) (PerkinElmer, Cat. AD0069) was added and incubated at room temperature for 60 mins. […] The IC50 values of the compounds were calculated using XLFIT5 (IDBS) software.

Series [5] relates to Ba/F3 LMNA-NTRK1-WT. Description: Cell proliferation inhibition (CellTiter-Glo), Ba/F3 LMNA-NTRK1-WT. Type of series: cell-based. To be noted: Mus musculus, BaF3, 72 h. The text has this: 4. Inhibitory Effect of Compounds on the Proliferation of TRK Fusion and Mutant Stable Cell Lines (IC50)
Six cell lines including Ba/F3 LMNA-NTRK1-WT, Ba/F3 LMNA-NTRK1-G595R, Ba/F3 ETV6-NTRK2-WT, Ba/F3 ETV6-NTRK2-G639R, Ba/F3 ETV6-NTRK2-G639R and Ba/F3 ETV6-NTRK3-G623R were used in this experiment.
The operation is described briefly as follows:
The cells in logarithmic growth phase were harvested to ensure that the cell viability was above 90%. […] Then each well containing the cells of the 96-well plate was added the compound solutions, 3 wells for each compound solution, and continued to incubate for another 72 hrs. Then CellTiter-Glo® kit (Promega, Cat #G7572) was used to do the detection. First, the CTG reagent was melted and the cell plate was balanced to room temperature. The same volume of CTG solution was added into each well and vibrated on the shaker for 5 minutes to lyse the cells. The cell plate was kept at room temperature for 20 minutes to stabilize the luminescent signal. […] Cell survival rate (%)=(1umdrug−1ummedium)/(1umcell−lummedium)×100%

Series [6] concerns Ba/F3 ETV6-NTRK3-WT. Description: Cell proliferation inhibition (CellTiter-Glo), Ba/F3 ETV6-NTRK3-WT. To be noted: Mus musculus, BaF3, 72 h, 72 hrs, read-out: IC50 proliferation Ba/F3 ETV6-NTRK3-WT. Type of series: cell-based.
Series [7] deals with Ba/F3 LMNA-NTRK3-G623R. Description: Cell proliferation inhibition (CellTiter-Glo), Ba/F3 LMNA-NTRK3-G623R. Format: cell-based. As to conditions: Mus musculus, BaF3, 72 h, 72 hrs, read-out: IC50 proliferation Ba/F3 LMNA-NTRK3-G623R.
The nature of series [8]: Blood-to-brain distribution in rats. Type of series: in vivo. To be noted: male, SD, rat, 10 mg/kg single oral gavage. The method, then: 7. Blood-to-Brain Distribution
Male SD rats were grouped, each group having 12 rats. Each group was given the compound of Examples (10 mg/kg) by single oral gavage. The animals were fasted overnight from 10 hours before administration to 4 hours after administration. The rats were killed at 0.5, 1, 4 and 12 hours after administration, and blood and brain tissues were collected. The samples were centrifuged at 4000 rpm at 4° C. for 5 min and plasma was transferred into the centrifuge tube and stored at −80° C. until analysis. The extract from the plasma extracted by protein precipitation was analyzed by LC/MS/MS.

Sequence of TRKA (P04629 33-796): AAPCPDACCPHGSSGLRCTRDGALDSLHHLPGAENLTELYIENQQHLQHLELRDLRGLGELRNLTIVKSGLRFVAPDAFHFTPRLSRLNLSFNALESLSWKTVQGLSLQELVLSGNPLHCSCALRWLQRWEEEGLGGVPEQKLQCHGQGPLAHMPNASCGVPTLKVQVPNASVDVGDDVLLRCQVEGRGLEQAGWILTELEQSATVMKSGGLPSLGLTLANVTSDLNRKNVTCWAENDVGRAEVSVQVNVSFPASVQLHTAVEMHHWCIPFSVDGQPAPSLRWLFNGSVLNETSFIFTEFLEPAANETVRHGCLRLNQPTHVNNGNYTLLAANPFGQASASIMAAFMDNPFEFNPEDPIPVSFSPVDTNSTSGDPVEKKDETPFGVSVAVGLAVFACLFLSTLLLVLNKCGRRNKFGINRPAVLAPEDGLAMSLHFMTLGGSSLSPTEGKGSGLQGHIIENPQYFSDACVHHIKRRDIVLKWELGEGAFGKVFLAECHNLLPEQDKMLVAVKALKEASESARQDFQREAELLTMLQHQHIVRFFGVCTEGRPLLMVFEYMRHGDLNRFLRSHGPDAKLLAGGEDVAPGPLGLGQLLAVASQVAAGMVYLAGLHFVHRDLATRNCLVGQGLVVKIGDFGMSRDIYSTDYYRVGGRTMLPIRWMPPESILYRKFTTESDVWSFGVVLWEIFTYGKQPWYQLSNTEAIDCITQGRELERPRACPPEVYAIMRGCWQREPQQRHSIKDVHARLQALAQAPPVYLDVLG
Sequence of ROS1 (P08922 28-2347): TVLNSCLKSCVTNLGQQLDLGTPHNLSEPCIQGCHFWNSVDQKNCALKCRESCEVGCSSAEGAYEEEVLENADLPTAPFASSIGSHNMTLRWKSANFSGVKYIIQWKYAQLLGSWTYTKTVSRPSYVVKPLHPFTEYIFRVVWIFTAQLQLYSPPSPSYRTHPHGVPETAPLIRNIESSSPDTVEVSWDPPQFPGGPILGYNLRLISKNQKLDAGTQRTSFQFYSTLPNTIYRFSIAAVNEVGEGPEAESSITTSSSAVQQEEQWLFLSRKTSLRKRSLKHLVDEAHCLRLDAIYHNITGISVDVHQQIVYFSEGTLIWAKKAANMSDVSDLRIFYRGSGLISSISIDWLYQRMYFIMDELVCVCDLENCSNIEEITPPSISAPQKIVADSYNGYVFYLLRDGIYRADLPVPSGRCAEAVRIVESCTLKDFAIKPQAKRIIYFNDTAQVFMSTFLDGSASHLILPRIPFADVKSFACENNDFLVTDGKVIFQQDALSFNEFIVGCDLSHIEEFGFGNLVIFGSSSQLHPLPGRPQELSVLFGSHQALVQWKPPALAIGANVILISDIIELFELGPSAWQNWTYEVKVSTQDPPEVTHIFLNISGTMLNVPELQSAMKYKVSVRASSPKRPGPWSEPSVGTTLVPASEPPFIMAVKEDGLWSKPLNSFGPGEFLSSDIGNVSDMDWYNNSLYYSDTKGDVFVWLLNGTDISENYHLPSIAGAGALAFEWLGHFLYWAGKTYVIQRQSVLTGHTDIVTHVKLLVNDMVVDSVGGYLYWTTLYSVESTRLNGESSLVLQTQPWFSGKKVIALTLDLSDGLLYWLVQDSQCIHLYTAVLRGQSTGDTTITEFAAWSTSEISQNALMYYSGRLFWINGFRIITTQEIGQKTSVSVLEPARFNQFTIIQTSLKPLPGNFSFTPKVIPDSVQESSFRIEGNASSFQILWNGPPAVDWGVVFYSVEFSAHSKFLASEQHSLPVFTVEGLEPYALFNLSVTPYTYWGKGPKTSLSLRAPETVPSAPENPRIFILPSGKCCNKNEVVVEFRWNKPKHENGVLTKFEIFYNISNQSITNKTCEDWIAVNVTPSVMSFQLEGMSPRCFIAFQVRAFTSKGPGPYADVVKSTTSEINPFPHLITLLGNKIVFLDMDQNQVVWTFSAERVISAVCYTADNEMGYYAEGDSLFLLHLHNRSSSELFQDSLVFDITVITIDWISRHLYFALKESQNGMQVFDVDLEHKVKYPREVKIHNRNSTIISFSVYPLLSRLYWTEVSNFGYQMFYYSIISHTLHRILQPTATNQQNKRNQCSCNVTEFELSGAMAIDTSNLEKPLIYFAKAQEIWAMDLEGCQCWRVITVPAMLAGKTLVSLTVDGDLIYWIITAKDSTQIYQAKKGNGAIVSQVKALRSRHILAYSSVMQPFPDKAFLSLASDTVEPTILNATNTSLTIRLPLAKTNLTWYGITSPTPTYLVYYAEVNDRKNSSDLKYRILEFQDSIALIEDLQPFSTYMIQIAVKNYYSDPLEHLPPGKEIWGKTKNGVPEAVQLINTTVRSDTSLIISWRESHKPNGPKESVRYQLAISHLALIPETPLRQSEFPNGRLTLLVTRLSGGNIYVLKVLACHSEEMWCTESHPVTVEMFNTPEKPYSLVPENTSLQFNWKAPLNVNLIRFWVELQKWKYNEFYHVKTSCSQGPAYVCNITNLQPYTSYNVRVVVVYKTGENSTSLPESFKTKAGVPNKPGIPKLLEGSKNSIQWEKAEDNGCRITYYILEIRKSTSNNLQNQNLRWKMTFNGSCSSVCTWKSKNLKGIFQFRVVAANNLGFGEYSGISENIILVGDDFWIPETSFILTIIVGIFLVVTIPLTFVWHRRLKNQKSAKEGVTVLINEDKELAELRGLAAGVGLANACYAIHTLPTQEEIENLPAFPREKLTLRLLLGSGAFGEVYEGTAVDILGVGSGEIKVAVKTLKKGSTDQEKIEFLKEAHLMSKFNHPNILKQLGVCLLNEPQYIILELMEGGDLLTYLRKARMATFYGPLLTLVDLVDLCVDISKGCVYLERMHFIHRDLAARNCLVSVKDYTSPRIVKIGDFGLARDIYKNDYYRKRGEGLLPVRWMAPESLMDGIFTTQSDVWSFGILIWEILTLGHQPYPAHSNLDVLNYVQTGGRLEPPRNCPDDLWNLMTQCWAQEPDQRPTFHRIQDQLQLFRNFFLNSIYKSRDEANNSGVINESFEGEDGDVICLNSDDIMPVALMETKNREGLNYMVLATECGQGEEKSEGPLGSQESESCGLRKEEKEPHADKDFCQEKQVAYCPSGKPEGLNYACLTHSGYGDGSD
Sequence of ROS1-G2032R (P08922 28-2347 G2032R): as the sequence (P08922 28-2347) above, with G2005R counted along it

For the compound `C[C@H]1COC(=O)c2cnn3ccc(nc23)N[C@H](C)c2cc(F)ccc2O1` [Example 1, (1^3E,1^4E,3R,6S)-4^5-fluoro-3,6-dimethyl-5,8-dioxa-2-aza-1(5,3)-pyrazolo[1,5-a]pyrimidina-4(1,2)-benzenacyclononaphan-9-one], the IC50 in series [1] came out at 0.13 nM; in series [2], 50 nM; in series [3], 0.33 nM; in series [4], 0.36 nM; in series [5] (test batch marked #), 1.04 nM; in series [5] (test batch marked *), 5.4 nM. Also, the IC50 stood at 1.04 nM in series [6] (test batch marked #), 0.2 nM in series [6] (test batch marked *), 8.34 nM in series [7] (test batch marked #) and 8.4 nM in series [7] (test batch marked *). In addition, the Kp (usually the ratio of the level in a tissue or fluid to that in plasma or blood) in series [8] (brain/plasma, AUC0-inf ratio) was determined as 1.14. The AUC(0-inf) in series [8] (brain, read-out: AUC0-inf Brain) was found to be 20.8 µM·h; in series [8] (plasma, read-out: AUC0-inf Plasma) it was 18.2 µM·h.
